Measurements reported in the supplement of paper PMC10733146.

Columns and labels:
Experiment in all cases: viability relative to DMSO control (fraction); higher = less drug effect (more viable cells)
Details in all cases: 48 h
[1] = tested on: primary AML patient cells (S017)
Procedure, shortened: (§1)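 Compounds were pre-plated at five concentrations, one well each, in 384-well plates, and primary mononuclear tumour cells were plated on them at 4 × 10^4 cells per well. The cells, fresh or cryopreserved, had been Ficoll-isolated from blood or bone marrow or taken from processed lymph node. After 48 h at 37 °C and 5% CO2 in RPMI-1640 with penicillin/streptomycin, L-glutamine and human serum, viability was read as CellTiter-Glo luminescence relative to the median of 16 inner DMSO wells.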

[2] = tested on: primary AML patient cells (S085)
Procedure, shortened: as §1

[3] = tested on: primary AML patient cells (S071)
Procedure, shortened: as §1

[4] = tested on: primary AML patient cells (S081)
Procedure, shortened: as §1

[5] = tested on: primary AML patient cells (S025)
Procedure, shortened: as §1

[6] = tested on: primary AML patient cells (S002)
Procedure, shortened: as §1

[7] = tested on: primary AML patient cells (S021)
Procedure, shortened: as §1

[8] = tested on: primary AML patient cells (S011)
Procedure, shortened: as §1

[9] = tested on: primary AML patient cells (S019)
Procedure, shortened: as §1

[10] = tested on: primary CLL patient cells (S043)
Procedure, shortened: as §1

[11] = tested on: primary BL patient cells (S005)
Procedure, shortened: as §1

[12] = tested on: primary AML patient cells (S060)
Procedure, shortened: as §1

[13] = tested on: primary B-PLL patient cells (S016)
Procedure, shortened: as §1

[14] = tested on: primary ALL patient cells (S088)
Procedure, shortened: as §1

Compound `Nc1ncn([C@H]2C[C@H](O)[C@@H](CO)O2)c(=O)n1` [Decitabine (Dacogen)] has a viability ([1]; 0.024 µM) of 1.09, a viability ([1]; 0.12 µM) of 0.954 and a viability ([1]; 0.6 µM) of 1.16. It also gave a viability ([1]; 3 µM) of 0.918, a viability ([1]; 15 µM) of 1.08 and a viability ([2]; 0.024 µM) of 0.939. It also gave a viability ([2]; 0.12 µM) of 0.904, a viability ([2]; 0.6 µM) of 0.909 and a viability ([2]; 3 µM) of 0.807. It also gave a viability ([2]; 15 µM) of 0.687, a viability ([3]; 0.024 µM) of 0.995 and a viability ([3]; 0.12 µM) of 0.948. It also gave a viability ([3]; 0.6 µM) of 0.934, a viability ([3]; 3 µM) of 0.792 and a viability ([3]; 15 µM) of 0.756. The viability ([4]; 0.024 µM) was 1.05, the viability ([4]; 0.12 µM) was 0.898 and the viability ([4]; 0.6 µM) was 1.05. For the same compound, the viability ([4]; 3 µM) was 0.912, the viability ([4]; 15 µM) was 0.931 and the viability ([5]; 0.024 µM) was 0.968. The viability ([5]; 0.12 µM) was 0.953, the viability ([5]; 0.6 µM) was 0.912 and the viability ([5]; 3 µM) was 0.694. For the same compound, the viability ([5]; 15 µM) was 0.535, the viability ([6]; 0.024 µM) was 1.03 and the viability ([6]; 0.12 µM) was 1.03. For the same compound, the viability ([6]; 0.6 µM) was 0.952, the viability ([6]; 3 µM) was 0.892 and the viability ([6]; 15 µM) was 0.903. It also gave a viability ([7]; 0.024 µM) of 1.17, a viability ([7]; 0.12 µM) of 0.973 and a viability ([7]; 0.6 µM) of 1.03. For the same compound, the viability ([7]; 3 µM) was 0.942, the viability ([7]; 15 µM) was 0.818 and the viability ([8]; 0.024 µM) was 0.963. The viability ([8]; 0.12 µM) was 0.887, the viability ([8]; 0.6 µM) was 1.1 and the viability ([8]; 3 µM) was 0.887. The viability ([8]; 15 µM) was 0.956, the viability ([9]; 0.024 µM) was 1.11 and the viability ([9]; 0.12 µM) was 0.753. For the same compound, the viability ([9]; 0.6 µM) was 1.04, the viability ([9]; 3 µM) was 0.684 and the viability ([9]; 15 µM) was 0.918. For the same compound, the viability ([10]; 0.024 µM) was 0.965, the viability ([10]; 0.12 µM) was 0.976 and the viability ([10]; 0.6 µM) was 0.975. It also gave a viability ([10]; 3 µM) of 0.959, a viability ([10]; 15 µM) of 0.899 and a viability ([11]; 0.024 µM) of 0.833. For the same compound, the viability ([11]; 0.12 µM) was 1.27, the viability ([11]; 0.6 µM) was 0.828 and the viability ([11]; 3 µM) was 1.27. For the same compound, the viability ([11]; 15 µM) was 0.8, the viability ([12]; 0.024 µM) was 1.01 and the viability ([12]; 0.12 µM) was 0.975. The viability ([12]; 0.6 µM) was 1.02, the viability ([12]; 3 µM) was 0.99 and the viability ([12]; 15 µM) was 1.01. For the same compound, the viability ([13]; 0.024 µM) was 0.927, the viability ([13]; 0.12 µM) was 0.83 and the viability ([13]; 0.6 µM) was 0.972. For the same compound, the viability ([13]; 3 µM) was 0.874, the viability ([13]; 15 µM) was 0.88 and the viability ([14]; 0.024 µM) was 0.978. The viability ([14]; 0.12 µM) was 0.886, the viability ([14]; 0.6 µM) was 0.982 and the viability ([14]; 3 µM) was 0.778. The viability ([14]; 15 µM) was 0.799.
Work on `O=C1c2c(O)ccc(O)c2C(=O)c2c(NCCNCCO)ccc(NCCNCCO)c21` [Mitoxantrone] yielded a viability ([1]; 0.008 µM) of 0.952, a viability ([1]; 0.04 µM) of 0.811 and a viability ([1]; 0.2 µM) of 0.608. The viability ([1]; 1 µM) was 0.126, the viability ([1]; 5 µM) was 0.0293 and the viability ([2]; 0.008 µM) was 0.538. It also gave a viability ([2]; 0.04 µM) of 0.295, a viability ([2]; 0.2 µM) of 0.277 and a viability ([2]; 1 µM) of 0.065. For the same compound, the viability ([2]; 5 µM) was 0.0217, the viability ([3]; 0.008 µM) was 0.139 and the viability ([3]; 0.04 µM) was 0.125. The viability ([3]; 0.2 µM) was 0.124, the viability ([3]; 1 µM) was 0.102 and the viability ([3]; 5 µM) was 0.0662. For the same compound, the viability ([4]; 0.008 µM) was 0.995, the viability ([4]; 0.04 µM) was 1.01 and the viability ([4]; 0.2 µM) was 1.09. For the same compound, the viability ([4]; 1 µM) was 0.167, the viability ([4]; 5 µM) was 0.0158 and the viability ([5]; 0.008 µM) was 0.539. The viability ([5]; 0.04 µM) was 0.399, the viability ([5]; 0.2 µM) was 0.533 and the viability ([5]; 1 µM) was 0.0658. The viability ([5]; 5 µM) was 0.0287, the viability ([6]; 0.008 µM) was 0.744 and the viability ([6]; 0.04 µM) was 0.443. It also gave a viability ([6]; 0.2 µM) of 0.332, a viability ([6]; 1 µM) of 0.334 and a viability ([6]; 5 µM) of 0.22. It also gave a viability ([7]; 0.008 µM) of 0.66, a viability ([7]; 0.04 µM) of 0.327 and a viability ([7]; 0.2 µM) of 0.265. It also gave a viability ([7]; 1 µM) of 0.212, a viability ([7]; 5 µM) of 0.106 and a viability ([8]; 0.008 µM) of 0.818. It also gave a viability ([8]; 0.04 µM) of 0.384, a viability ([8]; 0.2 µM) of 0.203 and a viability ([8]; 1 µM) of 0.041. It also gave a viability ([8]; 5 µM) of 0.0174, a viability ([9]; 0.008 µM) of 0.647 and a viability ([9]; 0.04 µM) of 0.256. For the same compound, the viability ([9]; 0.2 µM) was 0.282, the viability ([9]; 1 µM) was 0.132 and the viability ([9]; 5 µM) was 0.0646. For the same compound, the viability ([10]; 0.008 µM) was 0.739, the viability ([10]; 0.04 µM) was 0.849 and the viability ([10]; 0.2 µM) was 0.488. The viability ([10]; 1 µM) was 0.0542, the viability ([10]; 5 µM) was 0.0236 and the viability ([11]; 0.008 µM) was 0.963. The viability ([11]; 0.04 µM) was 1.55, the viability ([11]; 0.2 µM) was 0.853 and the viability ([11]; 1 µM) was 0.649. The viability ([11]; 5 µM) was 0.742, the viability ([12]; 0.008 µM) was 0.974 and the viability ([12]; 0.04 µM) was 0.963. The viability ([12]; 0.2 µM) was 1.07, the viability ([12]; 1 µM) was 0.332 and the viability ([12]; 5 µM) was 0.016. The viability ([13]; 0.008 µM) was 0.278, the viability ([13]; 0.04 µM) was 0.0753 and the viability ([13]; 0.2 µM) was 0.0754. For the same compound, the viability ([13]; 1 µM) was 0.0236, the viability ([13]; 5 µM) was 0.014 and the viability ([14]; 0.008 µM) was 0.535. For the same compound, the viability ([14]; 0.04 µM) was 0.271, the viability ([14]; 0.2 µM) was 0.216 and the viability ([14]; 1 µM) was 0.0605. For the same compound, the viability ([14]; 5 µM) was 0.0218.
